Results on two compounds are retold here after patent publication US10654890B2, “Cyclic peptide derivative, method for preparing same and composition thereof” (priority 2014, dated 2020).

Counter-ions that a name gives are not always drawn.

The subject of assay [1] is senescence-accelerated model mouse SAMP8. Kind of assay: Coefficient of friction measurement test of body hair. It is filed as in vivo. The source says:
Considering that the anti-aging effect for body hair and hair has been analyzed until now by using a senescence-accelerated model mouse (SAMP8) (Non Patent Literature 40), the inventors of the present invention also conducted an analysis regarding the anti-aging effect for body hair and hair for a senescence-accelerated model mouse administered with the cyclic peptide derivative by using a static and dynamic friction tester and a scanning probe microscope (SPM).
Coefficient of friction of animal hair and body hair is closely related to the state of cuticle as a scale-like tissue present on a surface of hair and body hair, and it is considered that the value of coefficient of friction (COF) increases as damages on cuticle of a hair and body hair increases (Non Patent Literature 40). It is also known that, when the damages on cuticle are high, moisture or nutrients of hair and body hair are lost from the damaged part of cuticle.
As for the apparatus, a handy rub tester TL701 (manufactured by Trinity-Lab Inc.), which is a static and dynamic friction tester, was used. […] Namely, the apparatus even allows measurement of friction on a surface of skin or materials which have a complex curved surface.
The contact member of a static and dynamic friction tester was closely pressed on body hair on forehead part of a mouse, and while applying a load of about 1 N, the member was moved, through an area between two ears, from the forehead to neck part of the mouse for about ten seconds, and the coefficient of friction (COF) was measured. The coefficient of friction (COF) was measured 5 to 10 times per mouse, and an average value thereof was calculated.

Assay [2] relates to culture astrocyte. Kind of assay: Astrocyte proliferative activity test (BrdU cell proliferation ELISA). It is filed as cell-based, mouse. As to the method: A pregnant ICR female mouse was purchased from Japan SLC, Inc., and a neonatal mouse 24 to 48 after birth was used for the test.
A neonatal ICR mouse (24 to 48 after birth) was sufficiently sterilized with 70% ethanol, immersed in 30 ml of PBS (−) in a 100 mm dish (diameter of 100 mm, Orange Scientific) for cell culture, and then placed in a clean bench. The neonatal mouse was subjected to cervical dislocation using tweezers and euthanized. Head of the neonatal mouse was open and the entire brain was removed. The obtained brain was transferred to a 100 mm dish for cell culture in which 15 ml of high glucose Dulbecco's modified Eagle medium (HG-D-MEM, Wako Pure Chemical Industries, Ltd.) is added. By using tweezers, the olfactory bulb, median eminence, and meninges were removed in the medium to obtain only a cerebrum having hippocampus. Subsequently, the obtained cerebrum was transferred to a 100 mm dish for cell culture added with 10 ml of HG-D-MEM, and using a scalpel, the cerebrum was finely cut to be 1 mm^2 or less. The cerebrum after cutting was transferred, together with the medium, to a 50 ml conical tube (TPP), and after allowing it to stand for 2 minutes, the supernatant was removed. Subsequently, the cerebrum after cutting was added with 4 ml of fresh HG-D-MEM, and after further adding 400 μl of 2.5% trypsin (SIGMA) and 40 μl of 1% DNase I (SIGMA), the cerebrum was incubated in a water bath at 37° C. for 10 minutes under intermittent stirring. Subsequently, to the cerebrum after cutting, 10 ml of HG-D-MEM (10% FBS) was added to terminate the reaction of trypsin followed by centrifuge for 3 minutes at 1,000×g using a centrifuge (H-9R, KOKUSAN Co., Ltd.). The supernatant was collected by an electric pipette, 10 ml of HG-D-MEM (10% FBS) was added to a precipitated cell mass, and pipetting using a sterile pipette was carried out several times until the cell mass is not observed. To remove the remaining cell mass from this cell dispersion, the cell dispersion was passed through a cell strainer (pore diameter of 100 μm, BD Falcon™), and the number of cells in the cell dispersion which has passed through the cell strainer was counted by using a cell counting plate. An adjustment was made with HG-D-MEM (10% FBS) such that the number of cells is 6.0×10^5 cells/ml. After the adjustment of the number of cells, the cell dispersion was seeded, in an amount of 7 ml for each, to a Poly-D-Lysine Cellware 100 mm Dish (PDL 100 mm dish, BD Falcon™). 96 Hours after the seeding, the medium was removed once using an aspirator, and after briefly washing the inside of a 100 mm PDL dish with 10 ml of PBS (−), the medium exchange was carried out by newly adding 7 ml of HG-D-MEM. The above method and the astrocyte preparation described below were carried out based on the method of McCarthy and de Vellis (1980, Non Patent Literature 30).
72 Hours after the medium exchange, the 100 mm PDL dish seeded with the cell broth was removed from the incubator, and tightly covered using a parafilm and fixed by overlaying 3 to 4 dishes. The resultant was cultured by shaking using a bioshaker (MULTI SHAKER MMS, INCUBATOR FMS/EYELA) under a condition including 37° C., 100 rpm, and 20 hours, and the neuronal cells, cell debris, dead cells or the like were liberated. At that time, in the inside the 100 mm PDL dish, only the astrocyte as a glial cell in central nervous system other than neuron was adhered (hereinbelow, described as culture astrocyte). After the shaking, the 100 mm PDL dish was transferred to a clean bench, the supernatant was removed by an aspirator and washed with 10 ml of PBS (−), and after adding 1 ml of 2.5% trypsin (SIGMA) using a Pasteur pipette, the dish was left to stand in an incubator for 10 minutes. The 100 mm PDL dish was again brought back to the clean bench, and added with 10 ml of Dulbecco's modified Eagle medium (D-MEM, Wako Pure Chemical Industries, Ltd.) (10% FBS). […]

As to `CCC1(C)Oc2cc(ccc2O)C(O)C(NC)C(=O)NC(C(C)C)C(=O)NC1C(=O)NC(CCC(=O)O)C(=O)O` (centres unmarked) [cyclic peptide derivative], the “coefficient of friction (COF) of body hair” value is “lowered to the same level as those of a mouse with normal aging” in assay [1] (SAMP8, oral 2.5 μg/kg/day) and “lowered to the same level as those of a mouse with normal aging” in assay [1] (SAMP8, oral 25 μg/kg/day). In addition, the “astrocyte proliferation compared to the control group” value in assay [2] (25 μM, FIG. 7) is on record as “about 12 times”. Besides, in assay [2] (0.1, 1, 5, 10, 25, and 50 μM, 24 hours exposure, FIG. 6), the “astrocyte proliferation accelerating activity” value is “observed with concentration dependency”. Further, the astrocyte proliferative activity entry in assay [2] (extracts and fractions of the isolation and purification steps, listed as F3-10-4-5-3) was “significant astrocyte proliferative activity”; in assay [2] (extracts and fractions of the isolation and purification steps, listed as F-3-10-4-5-3), “containing the components with an astrocyte proliferative activity”.
With `COc1cc2c(cc1OC)C(=O)C(CC1CCN(Cc3ccccc3)CC1)C2` (centres unmarked) [donepezil hydrochloride, reference compound], in assay [1] (SAMP8, oral donepezil hydrochloride 1250 μg/kg/day), the “coefficient of friction (COF) of body hair” value is “the same level as that of the senescence-accelerated model mouse”. Moreover, the astrocyte proliferative activity entry in assay [2] (25 μM, FIG. 8 and FIG. 9) is “no significant astrocyte proliferative activity was observed”.
